Consider one compound from article PMC7226045, “Ensartinib (X-396) Effectively Modulates Pharmacokinetic Resistance Mediated by ABCB1 and ABCG2 Drug Efflux Transporters and CYP3A4 Biotransformation Enzyme” (Cancers, 2020).

As a reminder, the pIC50 is the negative decadic logarithm of the IC50, by convention in mol/L. As usually defined, the IC50 is the concentration at which inhibition is half-maximal.

For one data set, the target named is T1, CYP2C19 (Homo sapiens, UniProt P33261).
T1 construct: purchased Thermo Fisher Scientific; host or cells: insect microsomal fractions
T1 sequence (P33261 whole entry): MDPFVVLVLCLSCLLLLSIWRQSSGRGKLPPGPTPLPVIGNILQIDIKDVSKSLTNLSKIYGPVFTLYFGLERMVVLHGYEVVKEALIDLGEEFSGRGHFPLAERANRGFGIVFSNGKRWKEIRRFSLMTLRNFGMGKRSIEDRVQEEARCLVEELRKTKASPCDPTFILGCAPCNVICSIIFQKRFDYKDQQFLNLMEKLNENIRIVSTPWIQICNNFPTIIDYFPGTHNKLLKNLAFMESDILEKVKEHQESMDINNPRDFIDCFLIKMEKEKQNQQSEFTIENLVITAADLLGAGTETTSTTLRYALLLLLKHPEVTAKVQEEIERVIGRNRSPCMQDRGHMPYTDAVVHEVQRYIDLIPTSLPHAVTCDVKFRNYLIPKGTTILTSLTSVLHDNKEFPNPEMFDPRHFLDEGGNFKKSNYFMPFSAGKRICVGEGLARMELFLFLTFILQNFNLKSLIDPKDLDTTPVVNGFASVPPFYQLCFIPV
The data set is described as follows: Vivid CYP screening kit, recombinant CYP2C19. Type of data set: biochemical. As to conditions: recombinant enzyme, 15 min incubation, absolute IC50; read-out: CYP2C19 inhibition IC50. As for the experimental part: CYP inhibitory assay was performed as described previously. Experiments were performed with commercial Vivid CYP screening kits containing insect microsomal fractions enriched with a specific human CYP isoform, human CYP reductase, and in some cases, human cytochrome b5. The potential inhibitory activity of ensartinib toward CYP1A2, CYP2B6, CYP2C8, CYP2C9, CYP2C19, CYP2D6, CYP3A4, and CYP3A5 (i.e., all CYP isoforms that drug regulatory authorities recommend for testing of inhibition by new molecular entities) was then examined. Experiments were performed using a kinetic mode in black 96-well plates according to the manufacturer´s instructions. Briefly, 5-point serial dilutions of ensartinib or the model inhibitor recommended by the manufacturer in buffer were transferred into the wells, then a master mix consisting of a CYP isoenzyme with an NADPH regeneration system in buffer was added. After a 10 min pre-incubation, the reaction was initiated by adding a mixture of NADP^+ and the appropriate Vivid substrate, after which fluorescence was measured at 1 min intervals for 60 min using an Infinite M200 Pro microplate reader (Tecan, Männedorf, Switzerland). The enzyme concentration and incubation interval used for data evaluation (15 min) placed the systems within the linear regions of the appropriate reaction velocity curves. […]

Data set [1] can be described thus: MTT proliferation / drug combination assay, MDCKII-ABCG2. Type of data set: cell-based, canine. The note with it: dog, MDCKII-ABCG2 cells, 48 h, MTT, read-out: IC50, sensitivity to ensartinib. Here is the method: (§1) MTT proliferation assay was performed as described previously.
A further data set relates to MDCKII-ABCG2 cells. The data set is described as above. Type of data set: cell-based, canine. Here is the method: as §1
The subject of the next data set is MDCKII-ABCC1 cells. The data set is described as follows: MTT proliferation assay, MDCKII-ABCC1. Type of data set: cell-based, canine. The note with it: Canis lupus familiaris, 48 h, read-out: IC50, sensitivity to ensartinib. Here is the method: as §1
On the technique in general: Tetrazolium assays rely on reduction of a dye to a coloured formazan, in cell work by metabolically active cells.

The next data set has as its target T2, ABCB1 (Homo sapiens, UniProt P08183).
T2 construct: expressed in transfected cells; host or cells: MDCKII-ABCB1 (from Dr. Alfred Schinkel, The Netherlands Cancer Institute)
The data set is described as follows: MDCKII monolayer transport assay, MDCKII-ABCB1. As to conditions: dog. Type of data set: in vitro ADME. As for the experimental part: Transport assays were performed on microporous polycarbonate membrane filters (3 µm pore size, 24 mm diameter, Transwell 3414; Costar, Corning, NY, USA) using MDCKII parental as well as ABCB1-, ABCG2-, and ABCC1-overexpressing MDCKII cells. The cells were seeded at a density of 1.5 × 10^6 cells per insert and cultured to full confluence for 7 days with media exchanges on the second and fourth days. Before the start of the transport experiments, inserts were washed with 1 × PBS on both the apical and basal sides. The cells were then preincubated in Opti-MEM with or without model inhibitors (1 µM LY335979, 1 µM Ko143, or 25 µM MK-571). […] Ensartinib levels in samples were measured by UHPLC-MS/MS (see below). […]
Samples from the monolayer transport assays (10 µL) were mixed with 100 µL of acetonitrile and 100 µL of methanol, vortexed for 15 min, and centrifuged at 14,500 rpm for 3 min. […] The MS source parameters were set to the following: drying gas, 320 °C, flow rate 10 l/min; sheath gas, 400 °C at 12 l/min; nebulizer pressure 25 psi; capillary voltage 4000 V; nozzle voltage 0 V. Transitions of [M+H]^+ ions were detected using a dwell time of 150 ms, a cell acceleration of 4 V, and fragmentor voltages of 137 V for 547→357, 257 and 120 transitions (corresponding to collision energies of 16, 32, and 56 V).

pIC50: −log10 of the molar value. Read-outs that look alike come from different tables or passages of the source.

T2 sequence (P08183 whole entry): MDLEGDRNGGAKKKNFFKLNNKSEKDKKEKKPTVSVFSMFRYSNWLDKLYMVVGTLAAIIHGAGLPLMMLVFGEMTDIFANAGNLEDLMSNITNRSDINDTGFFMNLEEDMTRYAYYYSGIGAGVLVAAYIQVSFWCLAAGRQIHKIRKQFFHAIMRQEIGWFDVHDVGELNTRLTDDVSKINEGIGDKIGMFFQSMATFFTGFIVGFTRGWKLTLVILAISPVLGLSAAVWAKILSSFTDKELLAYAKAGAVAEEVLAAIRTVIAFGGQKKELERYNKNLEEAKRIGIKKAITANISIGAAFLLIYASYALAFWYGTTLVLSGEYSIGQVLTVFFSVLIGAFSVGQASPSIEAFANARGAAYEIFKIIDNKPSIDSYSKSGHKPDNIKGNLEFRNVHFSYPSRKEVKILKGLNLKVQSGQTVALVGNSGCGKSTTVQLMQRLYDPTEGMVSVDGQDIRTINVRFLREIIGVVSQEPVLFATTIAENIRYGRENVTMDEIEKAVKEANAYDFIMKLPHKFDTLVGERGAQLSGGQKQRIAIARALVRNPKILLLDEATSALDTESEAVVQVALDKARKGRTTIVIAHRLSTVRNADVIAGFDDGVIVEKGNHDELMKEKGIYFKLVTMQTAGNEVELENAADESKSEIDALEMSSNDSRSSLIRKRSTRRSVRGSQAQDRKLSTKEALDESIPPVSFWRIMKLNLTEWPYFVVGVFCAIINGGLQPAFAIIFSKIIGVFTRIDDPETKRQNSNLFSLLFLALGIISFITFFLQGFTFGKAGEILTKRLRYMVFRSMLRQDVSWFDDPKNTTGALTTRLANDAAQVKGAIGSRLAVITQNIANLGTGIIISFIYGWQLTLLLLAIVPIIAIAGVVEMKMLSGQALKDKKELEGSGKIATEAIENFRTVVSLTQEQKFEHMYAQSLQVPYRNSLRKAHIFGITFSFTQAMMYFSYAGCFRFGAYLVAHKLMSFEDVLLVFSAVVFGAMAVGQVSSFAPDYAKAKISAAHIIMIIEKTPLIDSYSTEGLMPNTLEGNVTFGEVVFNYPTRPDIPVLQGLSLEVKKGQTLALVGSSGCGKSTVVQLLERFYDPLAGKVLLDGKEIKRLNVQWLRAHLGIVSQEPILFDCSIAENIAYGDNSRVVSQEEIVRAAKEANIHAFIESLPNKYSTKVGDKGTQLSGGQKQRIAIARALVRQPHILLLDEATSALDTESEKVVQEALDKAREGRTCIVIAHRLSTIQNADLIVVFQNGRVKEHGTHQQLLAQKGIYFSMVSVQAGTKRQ

Consider `C[C@@H]1CN(C(=O)c2ccc(NC(=O)c3cc(O[C@H](C)c4c(Cl)ccc(F)c4Cl)c(N)nn3)cc2)C[C@H](C)N1` [ensartinib, Ensartinib], for which the pIC50 is 4.84 on CYP2C19 and 4.66 in the data set on MDCKII-ABCC1 cells. For the same compound, the half-maximal inhibitory concentration (IC50) at 48 h in data set [1] was 23.3 µM. Further, the “combination effect (Chou-Talalay combination index)” value in the data set on MDCKII-ABCG2 cells (10 µM ensartinib with mitoxantrone) is given as “synergistic (synergistic (CI < 0.9))”. Further, in the data set with MDCKII-ABCG2 cells (mitoxantrone, IC50 single drug / IC50 combined with 10 µM ensartinib), the “RR (reversal ratio)” value is listed as 6.16. For the same compound, the efflux ratio at 4 h, 1 µM at ABCB1 (MDCK-MDR1, 1 µM ensartinib, read-out: transport ratio (r), BA/AB) turned out to be 15.6; on ABCB1 (MDCK-MDR1, with LY335979, 1 µM ensartinib + 1 µM LY335979, read-out: transport ratio (r), BA/AB, with ABCB1 inhibitor), 1.05.
